# According to patent US11591336B2 (Relay Therapeutics, Inc., priority 2017, dated 2023):
# Structures can show the parent of a compound that is named as a salt.
# Target: SHP2 (Homo sapiens (Human), UniProt Q06124)
# Assay: SHP2 Allosteric Inhibition Assay (DiFMUP prompt fluorescence)
# Format: biochemical
# Conditions: 0.25 nM SHP2 activated with 0.5 μM peptide IRS1_pY1172(dPEG8)pY1222; substrate DiFMUP 100 μM; 25° C.
row,Structure (SMILES),IC50 [µM]
1,C[C@@H]1OCC2(CCN(c3cnc4c(N5CCCc6c5ccc(C#N)c6[C@@H]5CCCO5)n[nH]c4n3)CC2)[C@@H]1N [Compound 522],< 1
2,C[C@@H]1OCC2(CCN(c3cnc4c(N5CCCc6c([C@@H]7CC(=O)N(C)C7)cccc65)n[nH]c4n3)CC2)[C@@H]1N [Compound 523],< 1
3,C[C@@H]1OCC2(CCN(c3cnc4c(N5CCCc6c5ccc(C#N)c6[C@H]5CCCO5)n[nH]c4n3)CC2)[C@@H]1N [Compound 524],< 1
4,C[C@@H]1OCC2(CCN(c3cnc4c(N5CCCc6c5ccc(C#N)c6[C@H]5CC(=O)N(C)C5)n[nH]c4n3)CC2)[C@@H]1N [Compound 525],< 1
5,C[C@@H]1OCC2(CCN(c3cnc4c(N5CCN([C@H]6C[C@@](C)(O)C6)c6cc(C#N)ccc65)n[nH]c4n3)CC2)[C@@H]1N [Compound 526],< 1
6,C[C@@H]1OCC2(CCN(c3cnc4c(N5CCN([C@H]6C[C@](C)(O)C6)c6cc(C#N)ccc65)n[nH]c4n3)CC2)[C@@H]1N [Compound 527],< 1
7,C[C@@H]1OCC2(CCN(c3cnc4c(N5CCCc6c5ccc(C#N)c6CC#N)n[nH]c4n3)CC2)[C@@H]1N [Compound 528],< 1
8,C[C@@H]1OCC2(CCN(c3cnc4c(N5CCN(CCF)c6cc(C#N)ccc65)n[nH]c4n3)CC2)[C@@H]1N [Compound 529],< 1
9,C[C@@H]1OCC2(CCN(c3cnc4c(N5CCN(C6CC(F)(F)C6)c6cc(C#N)ccc65)n[nH]c4n3)CC2)[C@@H]1N [Compound 530],< 1
10,C[C@@H]1OCC2(CCN(c3cnc4c(N5CCCc6ncsc65)n[nH]c4n3)CC2)[C@@H]1N [Compound 531],< 1
11,C[C@@H]1OCC2(CCN(c3cnc4c(N5CCN(C67CC(F)(C6)C7)c6cc(C#N)ccc65)n[nH]c4n3)CC2)[C@@H]1N [Compound 532],< 1
12,CO[C@H]1C[C@H](N2CCN(c3n[nH]c4nc(N5CCC6(CC5)CO[C@@H](C)[C@H]6N)cnc34)c3ccc(C#N)cc32)C1 [compound 472],1 to 10

# Continued, values first:
row,IC50 [µM],Structure (SMILES)
1,< 1,"C[C@@H]1OCC2(CCN(c3cnc4c(Oc5ccnc(Cl)c5Cl)n[nH]c4n3)CC2)[C@@H]1N [Compound 512, (3S,4S)-8-(3-((2,3-dichloropyridin-4-yl)oxy)-1H-pyrazolo[3,4-b]pyrazin-6-yl)-3-methyl-2-oxa-8-azaspiro[4.5]decan-4-amine]"
2,< 1,"CC1(CN)CCN(c2cnc3c(Sc4ccn5nccc5c4)n[nH]c3n2)CC1 [Compound 513, (4-methyl-1-(3-(pyrazolo[1,5-a]pyridin-5-ylthio)-1H-pyrazolo[3,4-b]pyrazin-6-yl)piperidin-4-yl)methanamine]"
3,< 1,"CC1(CN)CCN(c2cnc3c(Sc4ccnc5[nH]ccc45)n[nH]c3n2)CC1 [Compound 515, (1-(3-((1H-pyrrolo[2,3-b]pyridin-4-yl)thio)-1H-pyrazolo[3,4-b]pyrazin-6-yl)-4-methylpiperidin-4-yl)methanamine]"
4,< 1,"CC1(CN)CCN(c2cnc3c(Sc4ccc5cccnc5c4Cl)n[nH]c3n2)CC1 [Compound 516, (1-(3-((8-chloroquinolin-7-yl)thio)-1H-pyrazolo[3,4-b]pyrazin-6-yl)-4-methylpiperidin-4-yl)methanamine]"
5,< 1,"Cc1nccc(Oc2n[nH]c3nc(N4CCC5(CC4)CO[C@@H](C)[C@H]5N)cnc23)c1Cl [Compound 517, (3S,4S)-8-(3-((3-chloro-2-methylpyridin-4-yl)oxy)-1H-pyrazolo[3,4-b]pyrazin-6-yl)-3-methyl-2-oxa-8-azaspiro[4.5]decan-4-amine]"
6,< 1,"CC1(CN)CCN(c2cnc3c(Oc4cc(N)nc(Cl)c4Cl)n[nH]c3n2)CC1 [Compound 518, 4-((6-(4-(aminomethyl)-4-methylpiperidin-1-yl)-1H-pyrazolo[3,4-b]pyrazin-3-yl)oxy)-5,6-dichloropyridin-2-amine hydrochloride]"
7,< 1,C[C@@H]1OCC2(CCN(c3cnc4c(N5CCCc6c5ccc(C#N)c6[C@@H]5CC(=O)N(C)C5)n[nH]c4n3)CC2)[C@@H]1N [Compound 519]
8,< 1,C[C@@H]1OCC2(CCN(c3cnc4c(N5CCCc6c([C@H]7CC(=O)N(C)C7)cccc65)n[nH]c4n3)CC2)[C@@H]1N [Compound 521]
